Reference: patent US20230058623A1, “NOVEL HETEROARYL-TRIAZOLE COMPOUNDS AS PESTICIDES” (Bayer Aktiengesellschaft, priority 2019, published 2023)

Columns and labels:
Assay type in all cases: in vivo
[1] = tested on: fall armyworm larvae (Spodoptera frugiperda); experiment: Spodoptera frugiperda spray test; conditions: 168 h, application rate 100 g/ha, after 7 days, maize leaf sections
Protocol: Spodoptera frugiperda—Spray Test
(§1) To produce a suitable preparation of active compound, 1 part by weight of active compound is mixed with the stated amount of solvents and is diluted with water, containing an emulsifier concentration of 1000 ppm, to the desired concentration. Further test concentrations are prepared by dilution with emulsifier containing water.
Maize (Zea mays) leaf sections are sprayed with a preparation of the active ingredient of the desired concentration. Once dry, the leaf sections are infested with fall armyworm larvae (Spodoptera frugiperda).
After 7 days mortality in % is determined. 100% means all caterpillars have been killed and 0% means none of the caterpillars have been killed.

[2] = tested on: adult brown dog ticks (Rhipicephalus sanguineus); experiment: Rhipicephalus sanguineus in-vitro contact test, adult brown dog ticks; conditions: application rate 5 μg/cm^2 (=500 g/ha), after 48 hours, read-out: activity (efficacy: ticks dead or moribund)
Protocol: Rhipicephalus sanguineus—In-Vitro Contact Tests with Adult Brown Dog Ticks
(§2) 9 mg compound is solved in 1 mL acetone and diluted with acetone to the desired concentration. 250 μL of the test solution is filled in 25 mL glass test tubes and homogeneously distributed on the inner walls by rotation and tilting on a shaking device (2 h at 30 rpm). With a compound concentration of 900 ppm, an inner surface of 44.7 cm^2 and a homogeneous distribution, a dose of 5 μg/cm^2 is achieved.
(§3) After the solvent has evaporated, each test tube is filled with 5-10 adult brown dog ticks (Rhipicephalus sanguineus), closed with a perforated lid and incubated in a lying position at room temperature and relative humidity. After 48 hours efficacy is determined. The ticks are patted on the ground of the tubes and are incubated on a heating plate at 45-50° C. for at most 5 minutes. Immotile or uncoordinated moving ticks, which are not able to escape the heat by climbing upwards, are marked as dead or moribund.
An efficacy of 100% means all ticks are dead or moribund; 0% means no ticks are dead or moribund.

[3] = tested on: Rhipicephalus (Boophilus) microplus larvae (strain Parkhurst, resistant against synthetic pyrethroids); experiment: Rhipicephalus (Boophilus) microplus in-vitro contact test, larval cattle tick; conditions: after 48 hours, read-out: activity (efficacy: larvae dead or moribund); for pest or weed control at 1 µg/cm2, 100 g/ha: application rate 1 μg/cm^2 (=100 g/ha); for pest or weed control at 5 µg/cm2, 500 g/ha: application rate 5 μg/cm^2 (=500 g/ha)
Protocol: Rhipicephalus (Boophilus) microplus—In-Vitro Contact Tests Larval Cattle Tick (Strain Parkhurst, Resistant Against Synthetic Pyrethroids)
as §2, with “1 ml” for “1 mL”
After the solvent has evaporated, each test tube is filled with 20-50 cattle tick larvae (Rhipicephalus microplus), closed with a perforated lid and incubated in a horizontal position at 85% relative humidity and 27° C. in an incubator. After 48 hours efficacy is determined. The larvae are patted on the ground of the tubes and negative geotactic behavior is recorded.
An efficacy of 100% means all larvae are dead or moribund; 0% means no larvae are dead or moribund.

[4] = tested on: larvae of the banded cucumber beetle (Diabrotica balteata); experiment: Diabrotica balteata spray test; conditions: 168 h, application rate 100 g/ha (=32 μg/well), after 7 days, wheat seeds, read-out: activity (efficacy: seedlings grown)
Protocol: Diabrotica balteata—Spray Test
as §1, with “solvent,” for “solvents”, “and the concentrate” for “and”
Soaked wheat seeds (Triticum aestivum) are placed in a multiple well plate filled with agar and some water and are incubated for 1 day to germinate (5 seeds per well). The germinated wheat seeds are sprayed with a test solution containing the desired concentration of the active ingredient. Afterwards each unit is infected with 10-20 larvae of the banded cucumber beetle (Diabrotica balteata).
After 7 days efficacy in % is determined. 100% means all the seedlings have grown up like in the untreated, uninfected control; 0% means none of the seedlings have grown.

[5] = tested on: adult engorged female ticks (Rhipicephalus microplus); experiment: Rhipicephalus (Boophilus) microplus injection test; conditions: 168 h, application rate 4 μg/tick, egg deposition after 7 days, read-out: activity (efficacy: infertile eggs)
Protocol: Rhipicephalus (Boophilus) microplus—Injection Test
Solvent: dimethyl sulfoxide
To produce a suitable preparation of active compound, 10 mg of active compound are dissolved in 0.5 mL solvent, and the concentrate is diluted with solvent to the desired concentration.
Five adult engorged female ticks (Rhipicephalus microplus) are injected with 1 μL compound solution into the abdomen. The ticks are transferred into replica plates and incubated in a climate chamber.
After 7 days egg deposition of fertile eggs is monitored. Eggs where fertility is not visible are stored in a climate chamber till hatching after about 42 days. An efficacy of 100% means all eggs are infertile; 0% means all eggs are fertile.

[6] = tested on: green peach aphid (Myzus persicae); experiment: Myzus persicae oral test; conditions: 120 h, read-out: activity (mortality)
Protocol: Solvent: 100 parts by weight acetone
To produce a suitable preparation of active compound, 1 part by weight of active compound is mixed with the stated amount of solvent, and the concentrate is diluted with water to the desired concentration.
50 μL compound solution is filled in microtiter plates and 150 μL IPL41 insect medium (33%+15% sugar) is added to obtain a total volume of 200 μL per well. Afterwards the plates are sealed with parafilm through which a mixed population of the green peach aphid (Myzus persicae) can suck on the compound preparation.
(§4) After 5 days mortality in % is determined. 100% means all aphids have been killed and 0% means none of the aphids have been killed.

[7] = tested on: adult cat fleas (Ctenocephalides felis); experiment: Ctenocephalides felis in-vitro contact test, adult cat flea; conditions: application rate 5 μg/cm^2 (=500 g/ha), after 48 hours, read-out: activity (efficacy: fleas dead or moribund)
Protocol: Ctenocephalides felis—In-Vitro Contact Tests Adult Cat Flea
as §2
as §3, with “cat fleas (Ctenocephalides felis),” for “brown dog ticks (Rhipicephalus sanguineus),”, “fleas” for “ticks”, “fleas,” for “ticks,”
An efficacy of 100% means all fleas are dead or moribund; 0% means no fleas are dead or moribund.

[8] = tested on: green peach aphid (Myzus persicae); experiment: Myzus persicae spray test; conditions: foliar, 120 h, after 5 days, Chinese cabbage leaf disks; for mortality at 100 g/ha: application rate 100 g/ha, read-out: activity (mortality)
Protocol: Myzus persicae—Spray Test
as §1
Chinese cabbage (Brassica pekinensis) leaf disks infected with all instars of the green peach aphid (Myzus persicae), are sprayed with a preparation of the active ingredient of the desired concentration.
as §4

Structure (SMILES) | mortality at 100 g/ha [1] [%] | pest or weed control at 5 µg/cm2, 500 g/ha [2] [%] | pest or weed control at 1 µg/cm2, 100 g/ha [3] [%] | pest or weed control at 5 µg/cm2, 500 g/ha [3] [%] | pest or weed control at 32 µg/disc, 100 g/ha [4] [%] | pest or weed control at 0.004 mg [5] [%] | mortality at 4 ppm [6] [%] | pest or weed control at 5 µg/cm2 [7] [%] | mortality at 500 g/ha ([8]; application rate 500 g/ha) [%] | mortality at 100 g/ha [8] [%]
CC(NC(=O)c1cc(C(F)(F)F)cc(C(F)(F)F)c1)c1nc(Br)nn1-c1ccc(C(=O)N2CCOCC2)cn1 (racemic) [Example I-86, N-[1-[5-bromo-2-[5-(morpholine-4-carbonyl)-2-pyridyl]-1,2,4-triazol-3-yl]ethyl]-3,5-bis(trifluoromethyl)benzamide] | 83 | 80 | 100 | 100 | 100 | – | – | – | – | –
Cc1nc([C@H](C)NC(=O)c2cc(C(F)(F)F)cc(C(F)(F)F)c2)n(-c2ncc(C(=O)N3CCCC3)s2)n1 [Example I-16, N-[(1S)-1-{3-methyl-1-[5-(pyrrolidin-1-ylcarbonyl)-1,3-thiazol-2-yl]-1H-1,2,4-triazol-5-yl}ethyl]-3,5-bis(trifluoromethyl)benzamide] | 100 | – | 100 | 100 | 100 | 80 | 100 | – | – | –
Cc1nc([C@H](C)NC(=O)c2cc(Cl)cc(C(F)(F)F)c2)n(-c2ccc(C(=O)N3CC[C@H](O)C3)cn2)n1 [Example I-25] | – | – | – | – | – | 100 | 100 | – | – | –
Cc1nc([C@H](C)NC(=O)c2cc(Cl)cc(C(F)(F)F)c2)n(-c2ccc(C(=O)N3CC[C@@H](O)C3)cn2)n1 [Example I-26] | – | – | – | – | – | 100 | 100 | – | – | –
C[C@H](NC(=O)c1cc(Cl)cc(C(F)(F)F)c1)c1ncnn1-c1ccc(N2CCOCC2)cn1 [Example I-43] | – | 100 | 100 | 100 | 100 | – | – | – | – | –
C[C@@H]1CN(C(=O)c2ccc(-n3ncnc3[C@H](C)NC(=O)c3cc(Cl)cc(S(C)(=O)=O)c3)nc2)C[C@H](C)O1 [Example I-53] | 100 | – | – | – | – | – | 100 | 100 | – | –
C[C@H](NC(=O)c1cc(Cl)cc(C(F)(F)F)c1)c1ncnn1-c1ccc(N2CCSCC2=O)cn1 [Example I-55] | – | – | – | – | – | – | 100 | 80 | – | –
C[C@H](NC(=O)c1cc(OC(F)(F)F)cc(C2CC2)c1)c1ncnn1-c1ccc(N2CCOCC2=O)cn1 [Example I-58] | – | – | – | – | – | – | – | – | 90 | –
C[C@H](NC(=O)c1cc(OC(F)(F)F)cc(C2CC2)c1)c1ncnn1-c1ccc(C(=O)N2CCOC[C@@H]2C)cn1 [Example I-66] | 83 | – | 100 | 100 | 100 | – | – | 100 | – | –
C[C@H](NC(=O)c1cc(C(F)(F)F)cc(C(F)(F)F)c1)c1ncnn1-c1ccc(C(=O)N2CCOC[C@H]2C)cn1 [Example I-71] | 100 | 80 | 100 | 100 | 100 | – | 100 | 100 | – | –
Cc1nc([C@H](C)NC(=O)c2cc(C(F)(F)F)cc(C(F)(F)F)c2)n(-c2ccc(C(=O)N3CCOCC3c3ncno3)cn2)n1 (stereo partly shown) [Example I-99] | – | 80 | 100 | 100 | – | – | 100 | 100 | – | 90
C[C@H](NC(=O)c1cc(C(F)(F)F)cc(C(F)(F)F)c1)c1ncnn1-c1ccc(C(=O)N2CCOCC2c2ccnn2C)cn1 (stereo partly shown) [Example I-100] | 83 | – | 90 | 90 | 100 | – | – | 80 | – | –
C[C@H](NC(=O)c1cc(OC(F)(F)F)cc(C2CC2)c1)c1ncnn1-c1ccc(N2CCOCC2)cn1 [Example I-104] | – | – | 100 | 100 | 100 | – | – | 90 | – | 90
C[C@H](NC(=O)c1cc(C(F)(F)F)cc(C(F)(F)F)c1)c1ncnn1-c1ccc(C(=O)N(C)C2CCOCC2)cn1 [Example I-110] | 100 | – | 100 | 100 | – | – | 100 | 100 | – | 90
Cc1nc([C@H](C)NC(=O)c2cc(Br)cc(OC(F)(F)F)c2)n(-c2ncc(C(=O)N3CCOCC3)s2)n1 [Example I-136] | 100 | 100 | 100 | 100 | – | – | – | – | – | –
Cc1nc([C@H](C)NC(=O)c2cc(C(F)(F)F)cc(C(F)(F)F)c2)n(-c2ccc(C(=O)N3C[C@@H](C)O[C@@H](C)C3)nn2)n1 [Example I-139] | – | 100 | 100 | 100 | 100 | – | – | – | – | –
C[C@@H]1CN(C(=O)c2cnc(-n3ncnc3[C@H](C)NC(=O)c3cc(OC(F)(F)F)cc(C4CC4)c3)nc2)C[C@H](C)O1 [Example I-148] | 100 | – | – | – | 100 | – | – | – | – | 90
